Here are results for 2 compounds from PMC12814185, “Receptor-Mediated Shuttling of a D‑Amino Acid Peptide Achieves High Nanomolar Cytosolic Concentrations” (Journal of the American Chemical Society, 2025).

Where a SMILES comes first, the peptide text is derived from it. Bridges are numbered along the chain shown (N, C = ends). Roman numbers before positions name the chains, in order. Triazole bridges read from a SMILES are 1,4-linked. Where no end group is shown, it is not given here. Side-chain parts run from the residue outwards. [ ]: non-standard residue; d: D form. The star is where a group is joined. X2 = CN1C(=C/C=C/C=C/C2=[N+](CCCCCC(=O)*)c3ccc(S(=O)(=O)[O-])cc3C2(C)C)C(C)(C)c2cc(S(=O)(=O)O)ccc21; X1 = CN1C(=CC=CC=CC2=[N+](CCCCCC(=O)*)c3ccc(S(=O)(=O)[O-])cc3C2(C)C)C(C)(C)c2cc(S(=O)(=O)O)ccc21; Lys(N3) = [N-]=[N+]=NCCCC[C@H](N)C(=O)O; Cit = NC(=O)NCCC[C@H](N)C(=O)O; d(hCys) = N[C@H](CCS)C(=O)O; PEG3 = NCCOCCOCCOCCC(=O)O; Pra = C#CC[C@H](N)C(=O)O

The subject of series [1] is HEK293_CMKLR1-eYFP cells. Nature of the series: Resazurin based cell viability assay, peptides. The conditions noted are these: 72 h incubation. As for the experimental part: page 3: […] 15% FCS. Calcium flux assay Calcium flux assay was performed with cells expressing CMKLR1 and the chimeric G protein […]. The stably transfected COS-7_CMKLR1-eYFP_ […] were seeded at 25,000 cells per well into poly-ᴅ-lysine-coated 96-well plates (black μCLEAR, Greiner). The next day, cells were incubated with […] (Sigma), 20 mM 4-(2-hydroxyethyl)-1-piperazineethanesulfonic acid (HEPES, Sigma) in Hanks' Balanced […] This solution was replaced by assay buffer, and basal Ca2+ signal (λex = 485 nm, λem = 525 nm) was measured for 20 s with a Flexstation 3 plate reader (Molecular Devices). Peptide dilutions were added, and the Ca2+ response was measured for 40 s. The maximum signal over baseline was calculated and normalized to peptide 1 (N3-cC9). Non-linear regression was performed using Prism 10 (GraphPad). Experiments were performed in technical duplicates and at least twice. Cell viability assay HEK293 and HEK293_CMKLR1-eYFP cells were seeded at 15,000 cells per well into poly-ᴅ-lysine coated 96-well plates (black μCLEAR, Greiner). […] Cells were then washed and a resazurin-based cell viability assay was performed. […] (1:1) + 15% FBS without phenol red was added to the cells. […] using the fluorescence of resorufin (λex = 550 nm, λem = 595 nm). Data was normalized to cells incubated without peptide (100%) and cells treated with ethanol for 3 min before resazurin addition (0%). Experiments were performed in technical triplicates and at least twice. Fluorescence microscopy Peptide internalization was evaluated by fluorescence microscopy. […] the cells and incubated for 6 h. […] All shown microscopy images are representative of at least two independent experiments. […] Resazurin based cell viability assay of HEK293 and HEK293_CMKLR1-eYFP cells after 72 h incubation with the p53/MDM2 inhibitor Nutlin-3a. […] 100 50 2Cy 3Cy 4Cy 0 -8 -7 -6 -5 -4 […]], log Figure S4. Resazurin based cell viability assay of HEK293_CMKLR1-eYFP cells after 72 h incubation with the PMIγ peptides discussed in this work. Mean ± SEM from two independent experiments performed in triplicates. 15 […]

The test system of series [2] is HEK293_CMKLR1-eYFP cells. The series is described as follows: Fluorescence correlation spectroscopy (FCS) in the cytosol. The conditions noted are these: 72 h; for cytosolic concentration, median (IQR) / cytosolic concentration, mean ± SD: FCS at 22 °C. As for the experimental part:
(§1) 3 Quantification of Cy5-labeled peptides in the cytosol. (A) RP-HPLC (λex = 640 nm, λem = 670 nm) of cleavage products of Cy5-labeled peptides in the lysate of HEK293_CMKLR1-eYFP cells after incubation with 1 μM peptide for different durations. […] (B) Representative fluorescence correlation spectroscopy (FCS) autocorrelation curves of Cy5-labeled peptides measured in the cytosol of HEK293_CMKLR1-eYFP cells after 72 h of incubation. Measured curves were fitted with a model for hindered 3D diffusion and diffusion time t D and anomalous coefficient α were calculated from the fit. Autocorrelation data represent mean ± SD of up to 10 consecutive 5 s measurements in a single cell. (C) Intracellular concentrations of Cy5-labeled peptides after 72 h incubation calculated from the fitted autocorrelation curves obtained in HEK293_CMKLR1-eYFP, HMEC-1, and THP-1 cells. Each data point corresponds to FCS measurements from the cytosol of a single cell. Median with the interquartile range is shown. Data from three independent experiments. Statistical comparison by log-normal unpaired t test. ***p ≤ 0.001, **p ≤ 0.01, *p ≤ 0.05, ns – not significant. […] (D) Calculated diffusion coefficients from the fitted autocorrelation curves. Median with the interquartile range is shown. […]
(§2) Fluorescence correlation spectroscopy (FCS)
(§3) Cytosolic delivery was quantified by FCS as has been described previously.3–5 Stably transfected HEK293_CMKLR1-eYFP cells were seeded at 30,000 cells per well and HMEC-1 cells at 10,000 cells per well into poly-ᴅ-lysine-coated 8-well microscopy slides (ibidi) in their respective cell culture medium. THP-1 cells were resuspended in fresh cell culture medium at 100,000 cells/mL in 500 µL cell culture medium in uncoated 12-well plates. The next day, dilutions of Cy5-labeled peptides were added to the cells and incubated for 72 h. Cell membranes of HMEC-1 and THP-1 cells were stained with 20 µg/mL Alexa Fluor 488-labeled concanavalin A (Invitrogen) for 20 min to enable identification of the cytosol. Nuclei were counterstained with Hoechst33342, and cells were washed with FluoroBriteTM DMEM (Gibco) + 25 mM HEPES (pH 7.4). After washing, THP-1 cells were transferred to poly-ᴅ-lysine-coated 8-well microscopy slides and allowed to sediment and adhere for 1 h. Confocal imaging and FCS were performed at 22 °C on a TCS SP8 FALCON microscope (Leica) with a Plan-Apochromat 40x/1,10 water immersion objective and HyD single molecule detector (Leica). The 638 nm laser line was used for excitation at 0.5% power and […]

In another series the test system is THP-1 cells. Described as above. The conditions noted are these: THP-1, applied concentration 1000 nM, 72 h; for cytosolic concentration, mean ± SD: FCS at 22 °C. How it is done:
as §1, §2, §3

The subject of another series is HMEC-1 cells. The series is described as above. The conditions noted are these: HMEC-1, applied concentration 1000 nM, 72 h; for cytosolic concentration, mean ± SD: FCS at 22 °C. As for the experimental part:
as §1, §2, §3

Series [3] deals with HEK293 cells stably expressing CMKLR1-eYFP. Nature of the series: Live cell fluorescence microscopy of peptide internalization, cells with CMKLR1. The format is cell-based. To be noted: 1 μM Cy5-labeled peptide, 6 h, cells transfected with CMKLR1. How it is done: 2 Internalization of cyclic chemerin-9 conjugates. Live cell fluorescence microscopy of HEK293 and HEK293 cells stably expressed CMKLR1-eYFP. Cells were incubated with 1 μM Cy5-labeled peptide for 6 h before imaging. Blue = Hoechst33342, yellow = CMKLR1-eYFP, magenta = Cy5-peptide, scale bar ≙ 10 μm. […]
Salt Solution (HBSS, Biowest), pH 7.5) for 1 h. […]
Experiments were performed in technical duplicates and at least […]
HEK293 and HEK293_CMKLR1-eYFP cells were seeded at 15,000 cells per well into poly-ᴅ-lysine coated 96-well plates (black µCLEAR, Greiner). The next day, dilutions of the Cy5 -labeled peptides or Nutlin-3a […]
Cells were then washed and a resazurin-based cell viability […]
assay was performed. […]
Experiments […]
were performed in technical triplicates and at least twice.
Peptide internalization was evaluated by fluorescence microscopy. HEK293 and stably transfected […]
microscopy slides (ibidi). The next day, 1 µM Cy5-labeled peptides in cell culture medium were added to the cells and incubated for 6 h.
FluoroBriteTM DMEM (Gibco) with 10% FBS, 25 mM HEPES (pH 7.4) before imaging on an AxioVision Observer.Z1 microscope equipped with an apotome imaging system, an HXP120C light source, and a C-Apochromat 63x/1.20 W objective. All shown microscopy images are representative of at least two

Setting [4] is: applied concentration 10 nM, single cells, three independent experiments.
The mark [5] stands for this setting: applied concentration 1000 nM (1 μM).
[6] abbreviates: applied concentration 10000 nM (10 μM).

For the compound `CC(=O)N[C@@H](CCCCn1cc(C[C@H](NC(=O)CCOCCOCCOCCNC(=O)[C@H](CCCNC(N)=O)NC(=O)[C@@H](NC(=O)[C@H](CCC(=O)O)NC(=O)CNC(=O)CNC(=O)[C@@H](CCCNC(=N)N)NC(=O)[C@@H](CC(C)C)NC(=O)[C@@H](CC(C)C)NC(=O)[C@@H](C)NC(=O)[C@@H](CCC(=O)O)NC(=O)[C@@H](Cc2ccccc2)NC(=O)[C@@H](C)NC(=O)[C@@H](CC(C)C)NC(=O)[C@H]2CCCN2C(=O)[C@@H](Cc2c[nH]c3ccccc23)NC(=O)[C@@H](Cc2c[nH]c3ccccc23)NC(=O)[C@@H](CC(=O)O)NC(=O)CCOCCOCCOCCNC(=O)CCCCC[N+]2=C(/C=C/C=C/C=C3N(C)c4ccc(S(=O)(=O)O)cc4C3(C)C)C(C)(C)c3cc(S(=O)(=O)[O-])ccc32)C(C)C)C(N)=O)nn1)C(=O)N[C@@H](Cc1ccc(O)cc1)C(=O)N[C@@H](Cc1ccccc1)C(=O)N1CCC[C@H]1C(=O)N[C@@H]1CCSSC[C@@H](C(=O)O)NC(=O)[C@H](Cc2ccccc2)NC(=O)[C@H](C)NC(=O)[C@H](Cc2ccccc2)NC(=O)[C@H](CCC(N)=O)NC1=O` [2Cy] (I: {X2-PEG3}-[dD][dW][dW][dP][dL][dA][dF][dE][dA][dL][dL][dR]GGEV[Cit][PEG3][Pra]-NH2 / II: Ac-[Lys(N3)]YFP[d(hCys)]QFAFC-OH; triazole I:19-II:1; disulfide II:5-II:10), the cytotoxicity result in the series on HEK293_CMKLR1-eYFP cells [1] was “no signs of cytotoxicity”. Also, the “cytosolic concentration, median (IQR)” value in the series on HEK293_CMKLR1-eYFP cells [2] (applied concentration 10 nM) is reported as 6.2 (3.1–9.1) nM; in the series with HEK293_CMKLR1-eYFP cells [2] (applied concentration 100 nM), 6.8 (3.3–13.0) nM; in the series on HEK293_CMKLR1-eYFP cells [2] (setting [5]), 43.1 (19.0–99.4) nM; in the series on HEK293_CMKLR1-eYFP cells [2] (setting [6]), 106 nM; in the series with THP-1 cells, 14.0 (7.1–26.6) nM; with HMEC-1 cells it was 6.4 (3.7–9.3) nM. Also, the “cytosolic concentration, mean ± SD” value in the series with HEK293_CMKLR1-eYFP cells [2] (setting [4]) was 8.4 ± 7.8 nM; in the series with HEK293_CMKLR1-eYFP cells [2] (applied concentration 100 nM), 11.6 ± 14.6 nM; in the series on HEK293_CMKLR1-eYFP cells [2] (applied concentration 1000 nM) it was 78.6 ± 83.2 nM; in the series on HEK293_CMKLR1-eYFP cells [2] (applied concentration 10000 nM) it was 161 ± 128 nM; in the series with THP-1 cells it was 22.7 ± 25.1 nM; in the series on HMEC-1 cells it was 7.8 ± 5.4 nM. Further, the internalization result in series [3] is listed as “internalized efficiently”.

Turning to “I: GSVSHHHHHHGGHHHH[PEG3][dK]([PEG3-X1])[dD][dW][dW][dP][dL][dA][dF][dE][dA][dL][dL][dR]GEV[Cit][PEG3][Pra]-NH2 / II: Ac-[Lys(N3)]YFP[d(hCys)]QFAFC-OH (triazole I:36-II:1; disulfide II:5-II:10) [3Cy]”, in the series on HEK293_CMKLR1-eYFP cells [1], the cytotoxicity entry is on record as “tolerated slightly worse at concentrations above 1 μM”. Besides, in the series on HEK293_CMKLR1-eYFP cells [2] (10 μM, data not shown), the cellular stress result is reported as “showed signs of cellular stress”. For the same compound, the “cytosolic concentration, median (IQR)” value was 5.5 (3.2–9.5) nM in the series with HEK293_CMKLR1-eYFP cells [2] (applied concentration 10 nM); 10.2 (5.2–32.1) nM in the series on HEK293_CMKLR1-eYFP cells [2] (applied concentration 100 nM); 98.8 nM in the series on HEK293_CMKLR1-eYFP cells [2] (setting [5]); 228 nM in the series with HEK293_CMKLR1-eYFP cells [2] (setting [6]); 22.6 (12.7–38.5) nM in the series on THP-1 cells; 7.0 (5.2–12.4) nM in the series with HMEC-1 cells. In addition, the “cytosolic concentration, mean ± SD” value in the series with HEK293_CMKLR1-eYFP cells [2] (setting [4]) is reported as 6.6 ± 5.0 nM; in the series on HEK293_CMKLR1-eYFP cells [2] (applied concentration 100 nM), 23.5 ± 40.2 nM; with HEK293_CMKLR1-eYFP cells [2] (applied concentration 1000 nM), 138 ± 122 nM; in the series with HEK293_CMKLR1-eYFP cells [2] (applied concentration 10000 nM) it was 308 ± 257 nM; with THP-1 cells, 40.3 ± 77.12 nM; in the series with HMEC-1 cells, 20.1 ± 57.2 nM. The internalization entry in series [3] was “internalized efficiently”.
